Experimental data published in US20150050299A1, “METHODS FOR ENHANCING IMMUNE RESPONSE” (priority 2010, published 2015).

Tests used:
Type in all cases: cell-based
human TLR9 = target: T1, human TLR9 (Homo sapiens, UniProt Q9NR96); assay: Toll-Like Receptor (TLR) screening assay, TLR9; settings: 10 μM
T1 sequence (Q9NR96 26-1032): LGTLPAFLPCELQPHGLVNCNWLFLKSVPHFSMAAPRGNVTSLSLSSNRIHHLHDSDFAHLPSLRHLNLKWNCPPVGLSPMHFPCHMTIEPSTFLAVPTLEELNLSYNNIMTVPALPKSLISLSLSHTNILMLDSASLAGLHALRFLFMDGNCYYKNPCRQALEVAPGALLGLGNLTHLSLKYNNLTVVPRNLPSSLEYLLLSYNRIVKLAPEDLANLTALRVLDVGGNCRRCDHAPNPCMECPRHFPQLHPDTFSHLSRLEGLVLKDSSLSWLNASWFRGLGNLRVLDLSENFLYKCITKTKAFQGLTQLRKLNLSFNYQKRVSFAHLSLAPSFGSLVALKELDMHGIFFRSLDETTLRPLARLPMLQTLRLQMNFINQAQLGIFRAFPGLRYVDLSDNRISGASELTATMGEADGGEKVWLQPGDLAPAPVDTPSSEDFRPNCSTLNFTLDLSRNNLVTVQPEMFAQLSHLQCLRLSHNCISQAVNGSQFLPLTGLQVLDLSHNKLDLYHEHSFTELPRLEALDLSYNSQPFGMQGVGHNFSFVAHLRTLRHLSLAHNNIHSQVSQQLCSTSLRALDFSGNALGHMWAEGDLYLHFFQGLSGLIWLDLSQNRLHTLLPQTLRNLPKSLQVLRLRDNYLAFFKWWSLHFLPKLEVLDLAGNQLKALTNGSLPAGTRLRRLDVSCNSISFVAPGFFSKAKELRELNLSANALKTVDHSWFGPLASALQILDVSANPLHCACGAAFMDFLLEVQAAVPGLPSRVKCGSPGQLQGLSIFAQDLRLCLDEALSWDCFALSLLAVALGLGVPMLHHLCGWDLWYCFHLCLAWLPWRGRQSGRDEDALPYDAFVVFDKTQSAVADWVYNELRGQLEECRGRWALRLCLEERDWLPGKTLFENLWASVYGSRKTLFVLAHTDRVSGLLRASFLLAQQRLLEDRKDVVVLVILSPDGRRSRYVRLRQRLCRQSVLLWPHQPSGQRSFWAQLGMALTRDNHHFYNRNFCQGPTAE

human TLR7 = target: T2, human TLR7 (Homo sapiens, UniProt Q9NYK1); assay: Toll-Like Receptor (TLR) screening assay, TLR7; settings: 10 μM
T2 sequence (Q9NYK1 27-1049): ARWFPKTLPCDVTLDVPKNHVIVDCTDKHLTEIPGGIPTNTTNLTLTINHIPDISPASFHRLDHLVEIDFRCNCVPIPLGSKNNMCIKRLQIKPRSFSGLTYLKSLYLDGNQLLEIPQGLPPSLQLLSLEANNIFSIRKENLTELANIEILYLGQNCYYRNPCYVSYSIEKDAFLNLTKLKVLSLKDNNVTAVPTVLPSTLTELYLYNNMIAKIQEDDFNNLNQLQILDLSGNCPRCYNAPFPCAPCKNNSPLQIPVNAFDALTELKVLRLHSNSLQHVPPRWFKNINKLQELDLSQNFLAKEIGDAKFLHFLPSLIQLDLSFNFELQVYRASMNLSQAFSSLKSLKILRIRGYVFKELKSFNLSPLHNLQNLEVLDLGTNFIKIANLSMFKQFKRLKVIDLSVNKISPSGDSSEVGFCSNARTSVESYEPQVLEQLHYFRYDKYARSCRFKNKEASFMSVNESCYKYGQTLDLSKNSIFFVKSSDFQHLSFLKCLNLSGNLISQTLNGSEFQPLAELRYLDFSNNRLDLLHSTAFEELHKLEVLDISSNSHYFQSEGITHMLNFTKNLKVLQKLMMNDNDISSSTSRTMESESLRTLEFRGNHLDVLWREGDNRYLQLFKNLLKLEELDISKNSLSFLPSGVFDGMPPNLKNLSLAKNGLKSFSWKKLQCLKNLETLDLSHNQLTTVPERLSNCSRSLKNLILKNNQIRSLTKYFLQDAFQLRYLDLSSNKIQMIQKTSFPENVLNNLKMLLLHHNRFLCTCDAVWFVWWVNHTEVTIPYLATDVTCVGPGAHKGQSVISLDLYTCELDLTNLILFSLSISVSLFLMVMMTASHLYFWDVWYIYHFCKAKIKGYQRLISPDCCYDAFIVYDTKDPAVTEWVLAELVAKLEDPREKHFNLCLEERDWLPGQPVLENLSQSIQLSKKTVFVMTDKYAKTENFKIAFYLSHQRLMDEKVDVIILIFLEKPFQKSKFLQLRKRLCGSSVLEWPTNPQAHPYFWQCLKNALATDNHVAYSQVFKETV

human TLR4 = human TLR4 (Homo sapiens, UniProt O00206+Q9Y6Y9); assay: Toll-Like Receptor (TLR) screening assay, TLR4; settings: 10 μM; control LPS
Chain of human TLR4 (O00206 24-839): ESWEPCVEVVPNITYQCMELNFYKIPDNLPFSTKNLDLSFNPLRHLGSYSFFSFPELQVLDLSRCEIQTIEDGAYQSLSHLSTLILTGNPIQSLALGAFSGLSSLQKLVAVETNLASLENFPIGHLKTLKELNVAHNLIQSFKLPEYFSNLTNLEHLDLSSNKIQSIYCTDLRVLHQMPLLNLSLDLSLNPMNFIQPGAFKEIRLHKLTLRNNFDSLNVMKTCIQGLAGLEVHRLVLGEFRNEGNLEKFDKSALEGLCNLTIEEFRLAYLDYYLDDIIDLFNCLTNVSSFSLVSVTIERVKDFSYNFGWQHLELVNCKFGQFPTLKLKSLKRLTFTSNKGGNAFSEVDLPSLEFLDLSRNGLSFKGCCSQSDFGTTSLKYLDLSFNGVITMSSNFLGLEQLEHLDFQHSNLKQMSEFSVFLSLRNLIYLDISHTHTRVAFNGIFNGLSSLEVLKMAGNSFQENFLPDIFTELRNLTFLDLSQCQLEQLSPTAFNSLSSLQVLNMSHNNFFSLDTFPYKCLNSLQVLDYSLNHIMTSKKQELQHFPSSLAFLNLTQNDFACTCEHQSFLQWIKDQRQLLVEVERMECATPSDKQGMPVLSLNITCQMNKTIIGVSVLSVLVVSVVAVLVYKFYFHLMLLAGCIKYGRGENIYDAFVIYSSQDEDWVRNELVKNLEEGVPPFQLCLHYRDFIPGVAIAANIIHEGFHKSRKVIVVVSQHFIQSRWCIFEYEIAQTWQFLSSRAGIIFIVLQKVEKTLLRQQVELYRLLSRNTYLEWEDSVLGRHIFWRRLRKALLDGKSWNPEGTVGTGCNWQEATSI
Chain of human TLR4 (Q9Y6Y9 17-160 limits assumed): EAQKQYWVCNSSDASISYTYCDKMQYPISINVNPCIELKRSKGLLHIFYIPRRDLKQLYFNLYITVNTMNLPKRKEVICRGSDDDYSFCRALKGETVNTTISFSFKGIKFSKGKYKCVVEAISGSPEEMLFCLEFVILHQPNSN

human TLR5 = human TLR5 (Homo sapiens, UniProt O60602); assay: Toll-Like Receptor (TLR) screening assay, TLR5; settings: 10 μM
Chain of human TLR5 (O60602 21-858): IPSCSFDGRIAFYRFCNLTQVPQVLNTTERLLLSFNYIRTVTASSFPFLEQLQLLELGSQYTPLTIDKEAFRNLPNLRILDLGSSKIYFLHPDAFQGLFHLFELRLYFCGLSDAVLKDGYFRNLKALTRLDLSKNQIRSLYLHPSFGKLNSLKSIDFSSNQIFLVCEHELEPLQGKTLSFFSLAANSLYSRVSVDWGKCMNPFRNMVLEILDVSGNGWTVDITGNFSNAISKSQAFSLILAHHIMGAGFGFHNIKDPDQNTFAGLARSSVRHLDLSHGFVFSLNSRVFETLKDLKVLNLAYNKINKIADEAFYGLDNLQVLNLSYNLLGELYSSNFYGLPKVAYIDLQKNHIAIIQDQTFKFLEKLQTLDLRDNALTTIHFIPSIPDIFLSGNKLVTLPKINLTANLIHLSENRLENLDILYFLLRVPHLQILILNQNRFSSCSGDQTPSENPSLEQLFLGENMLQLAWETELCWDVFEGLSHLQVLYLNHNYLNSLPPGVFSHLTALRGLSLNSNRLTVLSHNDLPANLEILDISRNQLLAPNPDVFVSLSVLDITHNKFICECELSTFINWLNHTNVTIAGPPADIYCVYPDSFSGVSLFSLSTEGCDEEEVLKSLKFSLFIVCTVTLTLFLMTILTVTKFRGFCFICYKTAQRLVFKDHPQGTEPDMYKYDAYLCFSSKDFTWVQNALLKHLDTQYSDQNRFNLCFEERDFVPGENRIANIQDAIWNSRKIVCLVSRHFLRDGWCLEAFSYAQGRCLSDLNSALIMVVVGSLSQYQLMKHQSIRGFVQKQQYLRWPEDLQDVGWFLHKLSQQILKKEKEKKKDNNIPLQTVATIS

human TLR3 = target: T3, human TLR3 (Homo sapiens, UniProt O15455); assay: Toll-Like Receptor (TLR) screening assay, TLR3; settings: 10 μM
T3 sequence (O15455 24-904): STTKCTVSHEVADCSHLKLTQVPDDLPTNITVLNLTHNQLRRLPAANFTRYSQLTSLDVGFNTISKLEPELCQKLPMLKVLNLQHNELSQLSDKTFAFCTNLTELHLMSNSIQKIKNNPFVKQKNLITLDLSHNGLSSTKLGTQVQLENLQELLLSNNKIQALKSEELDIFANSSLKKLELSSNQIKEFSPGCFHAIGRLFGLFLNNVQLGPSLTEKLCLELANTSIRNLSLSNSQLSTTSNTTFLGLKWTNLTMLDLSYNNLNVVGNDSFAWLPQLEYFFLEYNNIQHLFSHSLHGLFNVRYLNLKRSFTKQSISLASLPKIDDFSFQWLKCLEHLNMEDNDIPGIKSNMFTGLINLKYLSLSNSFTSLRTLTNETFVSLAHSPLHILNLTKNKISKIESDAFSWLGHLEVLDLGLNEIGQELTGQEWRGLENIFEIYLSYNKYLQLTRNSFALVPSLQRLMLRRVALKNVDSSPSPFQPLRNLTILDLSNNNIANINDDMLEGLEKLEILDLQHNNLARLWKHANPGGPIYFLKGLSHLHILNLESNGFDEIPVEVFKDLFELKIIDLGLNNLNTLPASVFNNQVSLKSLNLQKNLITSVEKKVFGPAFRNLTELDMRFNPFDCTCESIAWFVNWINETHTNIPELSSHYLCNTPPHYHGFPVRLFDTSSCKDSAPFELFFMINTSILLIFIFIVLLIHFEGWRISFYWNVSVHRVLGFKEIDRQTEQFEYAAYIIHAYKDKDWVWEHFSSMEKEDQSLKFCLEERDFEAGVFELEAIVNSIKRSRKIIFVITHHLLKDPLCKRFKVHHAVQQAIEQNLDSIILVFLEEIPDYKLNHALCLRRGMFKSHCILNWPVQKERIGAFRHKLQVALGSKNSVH

SMILES: CCCCCCCCCCCCCCCC(=O)NCCCC[C@@H](N)C(=O)NCCCNCCCCNCCCN [AMXT 1501, D-Lys(C16acyl)-Spm]
- activity on TLR9 (human TLR9): no significant activity
- activity on TLR7 (human TLR7): no significant activity
- stimulatory effect on TLR4 (human TLR4): 16 % of control
- activity on TLR5 (human TLR5): no significant activity
- activity on TLR3 (human TLR3): no significant activity
